Measurements taken from patent US9233107B2, “Compositions and methods for the treatment of progressive multifocal leukoencephalopathy (PML)” (Biogen MA Inc., priority 2007, dated 2016).
Read-outs that look alike come from different tables or passages of the source.

Legend:
JCV strain Mad1/SVEΔ = assay: microbe, parasite or virus in culture; format: cell-based, JC polyomavirus (JCV); conditions: for % Inhibition (total #JCV+) @10 uM: SV40 transformed glial cells, Mad-1/SVEΔ JCV; for % Inhibition (% JCV+) @10 uM: infection rate, JCV+ cells normalised to total cells
Description: (§1) SV40 transformed glial cells were seeded in 10% FBS media. The cells were seeded at 2000 cells per well in 75 μl of media per well. On day 2, the media was removed and replaced by 35 μl of a 1× concentrated drug aliquot combined with a 100× diluted JCV Turbo aliquot in 35 μl of 2% FBS media (JCV Turbo is a hybrid Mad-1/SVEΔ virus constructed by insertion of the regulatory region of SV40 into the regulatory region of the Mad-1 strain of JCV (Mad-1/SVE), Vacante et al., Virology 1989, 170: 353-361). The cells were incubated for an hour, after which another 65 uL aliquot of 1× concentrated drug in 2% FBS was added. On day 5 the cells were stained with DAPI (for total cell number) and with a mouse monoclonal antibody against SV40 VP1, which cross reacts with the JCV VP1 protein. […] The information is tabulated as % inhibition (as measured by the number and percentage of JCV positive cells).
(§2) JCV Infectivity Assay: SVG-A cells were seeded at 2,000 cells/well/0.075 ml of culture media in 96 flat-bottom well plate (Corning, N.Y.). The next day compounds were prepared in assay medium (2% heat-inactivated fetal bovine serum, 4 mM L-glutamine, 1×MEM). A master viral plate was prepared by mixing equal volumes of [2×] compound and [2×] diluted virus for the final 1× concentration of the compound and the virus. The plate containing cells was gently inverted and shaken to remove media. From the master plate, 0.035 ml compound/virus was added to designated wells. The cells were incubated with the compound/virus mixture for 60 minutes in a humidified 37° C. CO2 incubator. At that time final concentration of the drug in media was added to designated wells to bring the final volume up to 0.1 ml/well. The plates were incubated for an additional three days, the cells were then washed once with 1×PBS, and fixed in 2% paraformaldehyde/1×PBS for 30 minutes at room temperature. The fixative was removed and the cells were solubilized with 0.5% Triton X100 in PBS for an additional 30 minutes. Infection by Mad-1/SVEΔ virus was visualized by staining with PAB597, a monoclonal antibody against the major capsid protein VP1, the cells were incubated with 0.05 ml of PAB597 (2 μg/ml in 1×PBS) for 60 minutes at 37° C. Following a wash step with 1×PBS, primary antibody was detected with an Alexa-Fluor 488-labeled goat anti-mouse secondary antibody at 1:100 dilution in 1×PBS, cells were counterstained with DAPI at 1 μg/ml (0.05 ml/well) for 30 minutes at 37° C. Cells were washed with 1×PBS and 0.1 ml 1×PBS was added to cells. Field images of each well were acquired and analyzed using the Cellomics ArrayScan (Thermo Scientific Inc, Waltham, Mass.) using the Target Activation software. […] The cells are seeded at 4,000 cells/well/0.075 ml of culture media in 96 flat-bottom well plate (Corning). The culture media is used for the infection. The length of the infection is six to ten days (instead of the three days for SVG-A cells).
Calculations: The rate of JCV infection was calculated by normalizing the number of JCV infected cells by the total number of nucleated cells as % JCV^+ cells=((total # VP1^+ cells)/(total # DAPI^+ cells))*100%. The % of viral inhibition by a compound was calculated using a JCV infection rate instead of using total number of JCV infected cells (e.g., VP1^+ cells).

SVG-A cells = assay: Total cell number (DAPI+ events) / cytotoxicity in the JCV infectivity assay; conditions: for inhibition at 10 µM: Homo sapiens, SVG-A, read-out: % Inhibition total Cell Number @10 uM; for % Inhibition total Cell Number @10 uM: cytotoxicity, DAPI count
Description: as §1, §2
The primary assay employed an SVG-A cell line and JCV Mad1/SVEΔ viral strain.

[1] = JC polyomavirus, Glial cell, read-out: % Inhibition (total #JCV+) @10 uM
[2] = JC polyomavirus, SVG-A, read-out: % Inhibition (% JCV+) @10 uM
[3] = anti-JCV, inhibition of % JCV infected cells by 50%, full dose response, read-out: IC50

Row | Molecule | inhibition at 10 µM (JCV strain Mad1/SVEΔ; [1]) | inhibition at 10 µM (JCV strain Mad1/SVEΔ; [2]) | inhibition at 10 µM (SVG-A cells) | % Inhibition (total #JCV+) @10 uM (JCV strain Mad1/SVEΔ) | % Inhibition (% JCV+) @10 uM (JCV strain Mad1/SVEΔ) | % Inhibition total Cell Number @10 uM (SVG-A cells) | other results
1 | CCCCOc1cc(CC2CNC(=O)N2)ccc1OC (stereo not shown) [4-(3-BUTOXY-4-METHOXYBENZYL)IMIDAZOLIDIN-2-ONE] | 48% | 42% | 12% | – | – | – | –
2 | O=c1oc2ccccc2c(O)c1Cc1c(O)c2ccccc2oc1=O [DICUMAROL] | 36% | 35% | 3% | – | – | – | –
3 | CCCCCCCCCCCCCCCC(=O)OC[C@@H](NC(=O)C(Cl)Cl)[C@H](O)c1ccc([N+](=O)[O-])cc1 [CHLORAMPHENICOL PALMITATE] | 20% | 29% | -13% | – | – | – | –
4 | COc1ccc([C@@H](C)C(=O)c2ccc(O)cc2O)cc1 [(R)-ANGOLENSIN] | – | – | – | 18% | 22% | −5% | –
5 | COc1cc(C)c(C(=O)Oc2cc(C)c(C(=O)O)c(O)c2C)c(OC)c1C [DIFFRACTIC ACID] | – | – | – | 44% | 36% | 13% | IC50 (JCV strain Mad1/SVEΔ; [3]): 14.4 µM; CC50 (SVG-A cells): > 40 µM
6 | O=C(O)c1cc([N+](=O)[O-])ccc1NCCCc1ccccc1 [5-NITRO-2-PHENYLPROPYLAMINOBENZOIC ACID] | – | – | – | 14% | 21% | −9% | –
7 | COc1ccc2c(c1)c(CC(=O)OCC(=O)O)c(C)n2C(=O)c1ccc(Cl)cc1 [ACEMETACIN] | 32% | 38% | -8% | – | – | – | –
8 | CC(=O)OCC(=O)[C@@]12OC3(CCCC3)O[C@@H]1C[C@H]1[C@@H]3CCC4=CC(=O)C=C[C@]4(C)[C@@]3(F)[C@@H](O)C[C@@]12C [AMCINONIDE] | 16% | 25% | -11% | – | – | – | –
9 | C[C@H](N)CO [L-ALANINOL] | – | – | – | 13% | 31% | −23% | –
10 | O=c1cc(-c2ccccc2)oc2cc(O)cc(O)c12 [CHRYSIN] | 18% | 26% | -12% | – | – | – | –
11 | C[C@H]1CC[C@]2(NC1)O[C@H]1C[C@H]3[C@@H]4CC[C@H]5C[C@@H](O[C@@H]6O[C@H](CO)[C@H](O[C@@H]7O[C@H](CO)[C@@H](O)[C@H](O[C@@H]8OC[C@@H](O)[C@H](O)[C@H]8O)[C@H]7O[C@@H]7O[C@H](CO)[C@@H](O)[C@H](O)[C@H]7O)[C@H](O)[C@H]6O)CC[C@]5(C)[C@H]4CC[C@]3(C)[C@H]1[C@@H]2C [TOMATINE] | 40% | 29% | 12% | – | – | – | –
12 | OCCN(CCO)c1nc(N2CCCCC2)c2nc(N(CCO)CCO)nc(N3CCCCC3)c2n1 [DIPYRIDAMOLE] | 24% | 22% | 3% | – | – | – | –
13 | O=c1cc(-c2ccc(O)cc2)oc2ccc(O)cc12 [6,4′-DIHYDROXYFLAVONE] | 18% | 22% | -5% | – | – | – | –
14 | O=C(O)c1ccccc1Nc1cccc(C(F)(F)F)c1 [FLUFENAMIC ACID] | 37% | 26% | 14% | – | – | – | –
15 | O=c1c2ccccc2oc2ccccc12 [XANTHONE] | 39% | 39% | 1% | – | – | – | IC50 (JCV strain Mad1/SVEΔ; JC polyomavirus, SVG-A): 16.8 µM
16 | CC1=CCc2c(cc3oc(C)cc(=O)c3c2O)OC1 [PTAEROXYLIN] | 32% | 22% | 11% | – | – | – | –
17 | COc1cc(/C=C/C(=O)N2CCC=CC2=O)cc(OC)c1OC [PIPLARTINE] | 21% | 27% | -7% | – | – | – | –
18 | Nc1nc2ccc(OC(F)(F)F)cc2s1 [RILUZOLE] | 16% | 26% | – | – | – | – | –
19 | COc1cc(OC)c(C(C)=O)c(OC)c1 [METHYLXANTHOXYLIN] | – | – | – | 33% | 30% | 5% | –

Row | Molecule | inhibition at 10 µM (JCV strain Mad1/SVEΔ; [1]) | inhibition at 10 µM (JCV strain Mad1/SVEΔ; [2]) | inhibition at 10 µM (SVG-A cells) | % Inhibition (total #JCV+) @10 uM (JCV strain Mad1/SVEΔ) | % Inhibition (% JCV+) @10 uM (JCV strain Mad1/SVEΔ) | % Inhibition total Cell Number @10 uM (SVG-A cells) | other results
20 | COc1cc2c(cc1-c1cc3cc4ccoc4cc3oc1=O)OCO2 [PACHYRRHIZIN] | – | – | – | 45% | 34% | 17% | –
21 | DEHYDROABIETAMIDE | – | – | – | 40% | 33% | 11% | IC50 (JCV strain Mad1/SVEΔ; [3]): 13 µM; CC50 (SVG-A cells): > 40 µM
22 | C=C[C@@H]1C2=CCOC(=O)C2=CO[C@H]1O[C@@H]1O[C@H](CO)[C@@H](O)[C@H](O)[C@H]1O [GENTIOPICROSIDE] | 32% | 22% | 11% | – | – | – | –
23 | CCOc1nc2cccc(C(=O)OC(C)OC(=O)OC3CCCCC3)c2n1Cc1ccc(-c2ccccc2-c2nn[nH]n2)cc1 (stereo not shown) [CANDESARTAN CILEXTIL] | – | – | – | 54% | 44% | 19% | –
24 | COc1cc2c(cc1-c1coc3c4c(c(OC)cc3c1=O)OC(C)(C)C=C4)OCO2 [ICHTHYNONE] | 34% | 24% | 14% | – | – | – | –
25 | COc1ccc(-c2cc(=O)c3c(O)c(OC)c(OC)c(OC)c3o2)cc1OC [DEMETHYLNOBILETIN] | – | – | – | 38% | 20% | 20% | –
26 | c1ccc2[nH]c(-c3cscn3)nc2c1 [THIABENDAZOLE] | 19% | 22% | -1% | – | – | – | –
27 | CC(C)=CCc1c(O)cc2oc(C)cc(=O)c2c1O [PEUCENIN] | 21% | 27% | -7% | – | – | – | –
28 | Cc1c(Cl)cccc1Nc1ccccc1C(=O)O [TOLFENAMIC ACID] | 61% | 53% | 18% | – | – | – | –
29 | COc1ccc(C(=O)c2ccccc2O)c(O)c1 [DIOXYBENZONE, 2,2′-Dihydroxy-4-methoxybenzophenone] | 55% | 49% | 11% | – | – | – | –
30 | C[C@@H]1CC[C@@]2(OC1)O[C@H]1C[C@H]3[C@@H]4CC[C@H]5C[C@@H](O)CC[C@]5(C)C4=CC[C@]3(C)[C@H]1[C@@H]2C [3beta-HYDROXYISOALLOSPIROST-9(11)-ENE] | – | – | – | 25% | 21% | 3% | –
31 | GINKGOLIC ACID | – | – | – | 33% | 39% | −8% | –
32 | O=c1cc(-c2ccccc2)oc2cccc(O)c12 [PRIMULETIN] | – | – | – | 40% | 29% | 12% | –
33 | CN1CCCN=C1/C=C/c1cccs1 [PYRANTEL PAMOATE] | 48% | 42% | 12% | – | – | – | –
34 | O=S1OCC2C(CO1)C1(Cl)C(Cl)=C(Cl)C2(Cl)C1(Cl)Cl (stereo not shown) [ENDOSULFAN] | 54% | 44% | 19% | – | – | – | –
35 | COC(=O)c1c(C)c2c(c(C)c1O)OC(=O)c1c(C)c(Cl)c(O)c(Cl)c1O2 [LEOIDIN] | 14% | 21% | -9% | – | – | – | –
36 | C[C@H]1C[C@H]2[C@@H]3CCC4=CC(=O)C=C[C@]4(C)[C@@]3(F)[C@@H](O)C[C@]2(C)[C@@]1(O)C(=O)CO [BETAMETHASONE] | 34% | 24% | 14% | – | – | – | –
37 | CN(CCOc1ccc(CC2SC(=O)NC2=O)cc1)c1ccccn1 (stereo not shown) [ROSIGLITAZONE] | 22% | 23% | -1% | – | – | – | –
